In patent publication US11458138B2 (Novartis AG, priority 2017, dated 2022):

How the values were obtained:
[1] = biological target: LATS1 (Homo sapiens (Human), UniProt O95835); test: LATS1 biochemical assay (Table 1A, Compound Examples 1-290; method in the earlier part)
[2] = test system: Phospho-YAP (SER127) in HaCaT cells; test: pYAP HTRF Assay (HaCaT Cells); format: cell-based, human; details: Homo sapiens, 2 hours
In short: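 Phospho-YAP (Ser127) was measured by HTRF (665 nm/620 nm ratio) in HaCaT cells. Cells were grown 48 hours at 37° C at 5500 cells/well, exposed to compound for 2 hours, and incubated with detection reagents for 20 hrs at room temperature.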

[3] = test system: YAP nuclear translocation in HaCaT cells; test: YAP Translocation Assay (HaCaT Cells); format: cell-based, human; details: Homo sapiens, 24 hours
In short: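 HaCaT cells (20,000/well) in DMEM + 10% FBS were plated overnight at 37° C, then exposed to compound for 24 h at 37° C. Cells were fixed with PFA, permeabilized with 0.1% Triton/1.5% BSA and imaged by high-content imaging.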

[4] = test system: Phospho-YAP (Ser127) in JHH-5 cells; test: pYAP HTRF Assay (JHH-5 cells); format: cell-based; details: 2 hours
Procedure: Briefly, JHH-5 cells are suspended at 0.48×10^6 cells/ml in William's E medium without phenol-red (Thermo Fisher Scientific Gibco catalog number A1217601) supplemented with 10% (v/v) heat-inactivated fetal bovine serum (Thermo Fisher Scientific Gibco catalog number 16140071) and penicillin-streptomycin at 100 U/ml each (Thermo Fisher Scientific Gibco catalog number 15140122). Cells are dispensed into 384well clear bottom culture plates (50 ul/well, at 24000 cells per well, Greiner catalog number 781091), and incubated for 24 hours in a cell culture incubator at 37° C. Test compounds are transferred into culture plates containing JHH-5 cells using an Echo550 (Labcyte) acoustic dispenser (50 nl/well), followed by incubation for 2 hours at 37° C. Lysis buffer (part of CisBio kit catalog number 64YAPPEI) is added to the assay plates as a four-fold concentrate (corresponding to 16 ul/well) and incubated for 30 minutes at room temperature with agitation. Lysate is transferred from culture plates into white low-volume 384well assay plates (12 ul/well, Greiner catalog number 784075), followed by the addition of 3 ul/well of detection antibodies (part of CisBio kit catalog number 64YAPPEI: 1:40 dilution of each pYAP d2 antibody and pYAP cryptate antibody stocks). The plates are sealed and incubated overnight (18 hours) at room temperature protected from light. Plates are read on an EnVision plate reader (Perkin Elmer) at emission wavelengths of 665 nm and 620 nm. The HTRF signal ratio x per well is calculated as [x=Signal(665 nm)/Signal(620 nm)×10000] as specified in the manufacturer's protocol.

LATS1, sequence (O95835 whole entry, looked up): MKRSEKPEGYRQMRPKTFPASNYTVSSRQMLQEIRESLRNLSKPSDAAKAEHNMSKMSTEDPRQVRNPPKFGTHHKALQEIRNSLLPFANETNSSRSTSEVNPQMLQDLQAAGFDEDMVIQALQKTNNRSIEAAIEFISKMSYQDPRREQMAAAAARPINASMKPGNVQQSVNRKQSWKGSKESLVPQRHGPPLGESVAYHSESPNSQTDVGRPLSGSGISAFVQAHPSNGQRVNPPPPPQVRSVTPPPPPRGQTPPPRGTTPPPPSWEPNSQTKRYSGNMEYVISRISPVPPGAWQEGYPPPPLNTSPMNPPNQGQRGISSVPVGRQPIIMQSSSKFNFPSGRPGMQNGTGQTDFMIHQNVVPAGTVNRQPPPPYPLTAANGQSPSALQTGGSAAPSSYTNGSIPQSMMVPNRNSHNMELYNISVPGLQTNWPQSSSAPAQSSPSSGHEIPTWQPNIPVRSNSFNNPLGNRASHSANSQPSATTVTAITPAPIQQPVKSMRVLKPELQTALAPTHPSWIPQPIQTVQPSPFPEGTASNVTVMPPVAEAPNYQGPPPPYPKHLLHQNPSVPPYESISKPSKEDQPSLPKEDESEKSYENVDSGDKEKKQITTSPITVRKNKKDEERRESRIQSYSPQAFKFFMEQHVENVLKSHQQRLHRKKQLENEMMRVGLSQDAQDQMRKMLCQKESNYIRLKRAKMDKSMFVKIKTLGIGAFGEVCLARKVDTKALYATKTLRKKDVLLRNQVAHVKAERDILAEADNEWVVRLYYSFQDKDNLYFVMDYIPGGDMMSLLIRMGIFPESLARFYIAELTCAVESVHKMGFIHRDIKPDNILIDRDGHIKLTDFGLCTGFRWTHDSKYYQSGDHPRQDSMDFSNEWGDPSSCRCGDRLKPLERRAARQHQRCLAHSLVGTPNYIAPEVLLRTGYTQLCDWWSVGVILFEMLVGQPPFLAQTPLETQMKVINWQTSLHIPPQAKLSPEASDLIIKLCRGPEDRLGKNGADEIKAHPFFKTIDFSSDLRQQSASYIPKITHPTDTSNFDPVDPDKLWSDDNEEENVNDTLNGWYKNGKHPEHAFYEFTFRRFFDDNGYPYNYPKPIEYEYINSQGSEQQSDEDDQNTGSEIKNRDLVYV
LATS1, sequence (Q7L9L4 whole entry partner, looked up): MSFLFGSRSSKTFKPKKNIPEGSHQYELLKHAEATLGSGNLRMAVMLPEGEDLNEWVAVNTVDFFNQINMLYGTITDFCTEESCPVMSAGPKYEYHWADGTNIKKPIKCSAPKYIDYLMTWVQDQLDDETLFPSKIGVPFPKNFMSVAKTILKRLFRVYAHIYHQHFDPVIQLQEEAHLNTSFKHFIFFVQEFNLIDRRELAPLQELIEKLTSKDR

Row | SMILES | IC50 [1] [nM] | IC50 [2] [nM] | EC50 [3] [µM] | IC50 [4] [µM]
1 | CC(C)N(C)c1nc(-c2ccncc2F)nc2cnccc12 [Example 122, 2-(3-fluoropyridin-4-yl)-N-methyl-N-(propan-2-yl)pyrido[3,4-d]pyrimidin-4-amine] | 15 | 7400 | 5.8 | 8
2 | Cc1n[nH]cc1-c1nc(NC(C)(C)CC(C)(C)O)c2ccncc2n1 [Example 140, 2,4-dimethyl-4-{[2-(3-methyl-1H-pyrazol-4-yl)pyrido[3,4-d]pyrimidin-4-yl]amino}pentan-2-ol] | 4 | 1240 | 2.26 | 2.2
3 | CC1(Nc2nc(-c3ccncc3)nc3c(Cl)nccc23)CC1 [Example 198, 8-chloro-N-(1-methylcyclopropyl)-2-(pyridin-4-yl)pyrido[3,4-d]pyrimidin-4-amine] | 1 | 2180 | 3.23 | 1.3
4 | CC(C)(O)CC(C)(C)Nc1cc(-c2ccncc2)nc2cnccc12 [Example 263, 2,4-dimethyl-4-{[2-(pyridin-4-yl)-1,7-naphthyridin-4-yl]amino}pentan-2-ol] | 7 | 3220 | 5.99 | > 10
5 | C[C@]1(Nc2nc(-c3ccncc3)nc3cnccc23)C[C@@H](O)C1 [Example 70, (1r,3s)-3-methyl-3-{[2-(pyridin-4-yl)pyrido[3,4-d]pyrimidin-4-yl]amino}cyclobutan-1-ol] | 3 | 422 | 1.68 | 4
6 | CC(C)(C)Nc1cc(-c2ccnc3[nH]ccc23)nc2cnccc12 [Example 272, N-tert-butyl-2-{1H-pyrrolo[2,3-b]pyridin-4-yl}-1,7-naphthyridin-4-amine] | 2 | 3510 | 5.97 | 8.1
7 | COCC(C)(C)Nc1nc(-c2ccncc2)nc2cnccc12 [Example 7, N-(1-methoxy-2-methylpropan-2-yl)-2-(pyridin-4-yl)pyrido[3,4-d]pyrimidin-4-amine] | 2 | 165 | 0.733 | 1.6
8 | COCCC(C)(C)Nc1nc(-c2ccncc2)nc2cnccc12 [Example 8, N-(4-methoxy-2-methylbutan-2-yl)-2-(pyridin-4-yl)pyrido[3,4-d]pyrimidin-4-amine] | 3 | 198 | 1.2 | 1.9
9 | CC(C)(C)Nc1cc(-c2ccnnc2)nc2cnccc12 [Example 273, N-tert-butyl-2-(pyridazin-4-yl)-1,7-naphthyridin-4-amine] | 463 | > 100000 | > 20 | > 10
10 | CC1(Nc2nc(-c3ccncc3)nc3cnccc23)CC1 [Example 99, N-(1-methylcyclopropyl)-2-(pyridin-4-yl)pyrido[3,4-d]pyrimidin-4-amine] | 1 | 113 | 0.606 | 5.7
11 | Cc1n[nH]cc1-c1cc(NC(C)(C)C)c2ccncc2n1 [Example 269, N-tert-butyl-2-(3-methyl-1H-pyrazol-4-yl)-1,7-naphthyridin-4-amine] | 1 | 294 | 0.438 | 0.8
12 | CC(C)(C)Nc1cc(-c2ccnc(N)n2)nc2cnccc12 [Example 271, 2-(2-aminopyrimidin-4-yl)-N-tert-butyl-1,7-naphthyridin-4-amine] | 2 | 187 | 1.07 | 0.8
13 | CC(C)(O)C(C)(Nc1nc(-c2ccncc2)nc2cnccc12)C(F)(F)F (centres unmarked) [Example 50, 4,4,4-trifluoro-2,3-dimethyl-3-{[2-(pyridin-4-yl)pyrido[3,4-d]pyrimidin-4-yl]amino}butan-2-ol] | 5 | 17000 | 3.81 | > 10
14 | CC(C)(O)COCC(C)(C)Nc1cc(-c2ccncc2)nc2cnccc12 [Example 267, 2-methyl-1-(2-methyl-2-{[2-(pyridin-4-yl)-1,7-naphthyridin-4-yl]amino}propoxy)propan-2-ol] | 13 | 7190 | 9.75 | 5.9
15 | CC(C)(Nc1nc(-c2ccncc2)nc2cnccc12)C1CCCCC1 [Example 15, N-(2-cyclohexylpropan-2-yl)-2-(pyridin-4-yl)pyrido[3,4-d]pyrimidin-4-amine] | 4 | 660 | 3.48 | 4.1
16 | CC(C)(Nc1nc(-c2ccncc2F)nc2cnccc12)C(F)(F)F [Example 134, 2-(3-fluoropyridin-4-yl)-N-(1,1,1-trifluoro-2-methylpropan-2-yl)pyrido[3,4-d]pyrimidin-4-amine] | 1 | 539 | 1.19 | 1
17 | CCC(C)Nc1nc(-c2ccncc2)nc2cnccc12 (centres unmarked) [Example 68, N-(butan-2-yl)-2-(pyridin-4-yl)pyrido[3,4-d]pyrimidin-4-amine] | 2 | 1230 | 3.39 | 3.5
18 | CC[C@H](C)Nc1cc(-c2ccncc2)nc2cnccc12 [Example 256, N-[(2S)-butan-2-yl]-2-(pyridin-4-yl)-1,7-naphthyridin-4-amine] | 8 | 11100 | 15.6 | > 10
19 | CN(C)CCC(C)(C)Nc1nc(-c2ccncc2)nc2cnccc12 [Example 109, dimethyl(3-methyl-3-{[2-(pyridin-4-yl)pyrido[3,4-d]pyrimidin-4-yl]amino}butyl)amine] |  | 977 | 4.71 | 1.5
20 | CC(C)(C)Nc1nc(-c2ccnc(N)c2)nc2cnccc12 [Example 112, 4-[4-(tert-butylamino)pyrido[3,4-d]pyrimidin-2-yl]pyridin-2-amine] | 2 | 1210 | 3.52 | 3.2
21 | C[C@H](N(C)c1nc(-c2ccncc2F)nc2cnccc12)C(F)(F)F [Example 136, 2-(3-fluoropyridin-4-yl)-N-methyl-N-[(2S)-1,1,1-trifluoropropan-2-yl]pyrido[3,4-d]pyrimidin-4-amine] | 2 | 1140 | 2.96 | 1.3
22 | CC1(C)CC(O)CCN1c1cc(-c2ccncc2Cl)nc2cnccc12 (centres unmarked) [Example 283, 1-[2-(3-chloropyridin-4-yl)-1,7-naphthyridin-4-yl]-2,2-dimethylpiperidin-4-ol] |  | 8250 | 14.2 | > 10
23 | CN(C)CCC(C)(C)Nc1cc(-c2ccncc2F)nc2cnccc12 [Example 276, (3-{[2-(3-fluoropyridin-4-yl)-1,7-naphthyridin-4-yl]amino}-3-methylbutyl)dimethylamine] | 17 |  | > 20 | > 10
24 | c1cc(-c2cc(NC3CCCC3)c3ccncc3n2)ccn1 [Example 264, N-cyclopentyl-2-(pyridin-4-yl)-1,7-naphthyridin-4-amine] |  | 14800 | 11.2 | > 10
25 | CCCNc1cc(-c2ccncc2)nc2cnccc12 [Example 268, N-propyl-2-(pyridin-4-yl)-1,7-naphthyridin-4-amine] | 18 |  | > 20 | > 10
